For one experiment, the target named is rat TAAR1 (Rattus norvegicus (Rat), UniProt Q923Y9). The experiment can be described thus: Radioligand binding assay on rat TAAR1. The following applies: rat TAAR1, membranes of stably transfected HEK-293 cells; second value of cell mouse/rat. The method, then:
(§1) Construction of TAAR Expression Plasmids and Stably Transfected Cell Lines
(§2) For the construction of expression plasmids the coding sequences of human, rat and mouse TAAR 1 were amplified from genomic DNA essentially as described by Lindemann et al.. The Expand High Fidelity PCR System (Roche Diagnostics) was used with 1.5 mM Mg^2+ and purified PCR products were cloned into pCR2.1-TOPO cloning vector (Invitrogen) following the instructions of the manufacturer. PCR products were subcloned into the pIRESneo2 vector (BD Clontech, Palo Alto, Calif.), and expression vectors were sequence verified before introduction in cell lines.
(§3) HEK293 cells (ATCC # CRL-1573) were cultured essentially as described by Lindemann et al. (2005). For the generation of stably transfected cell lines HEK293 cells were transfected with the pIRESneo2 expression plasmids containing the TAAR coding sequences (described above) with Lipofectamine 2000 (Invitrogen) according to the instructions of the manufacturer, and 24 hrs post transfection the culture medium was supplemented with 1 mg/ml G418 (Sigma, Buchs, Switzerland). After a culture period of about 10 d clones were isolated, expanded and tested for responsiveness to trace amines (all compounds purchased from Sigma) with the cAMP Biotrak Enzyme immunoassay (EIA) System (Amersham) following the non-acetylation EIA procedure provided by the manufacturer.
Radioligand Binding Assay on Rat TAAR1
(§4) Membrane Preparation and Radioligand Binding.
HEK-293 cells stably expressing rat TAAR1 were maintained at 37° C. and 5% CO2 in DMEM high glucose medium, containing fetal calf serum (10%, heat inactivated for 30 min at 56° C.), penicillin/streptomycin (1%), and 375 μg/ml geneticin (Gibco). Cells were released from culture flasks using trypsin/EDTA, harvested, washed twice with ice-cold PBS (without Ca^2+ and Mg^2+), pelleted at 1'000 rpm for 5 min at 4° C., frozen and stored at −80° C. Frozen pellets were suspended in 20 ml HEPES-NaOH (20 mM, pH 7.4) containing 10 mM EDTA and homogenized with a Polytron (PT 6000, Kinematica) at 14'000 rpm for 20 s. The homogenate was centrifuged at 48'000×g for 30 min at 4° C. Subsequently, the supernatant was removed and discarded, and the pellet resuspended in 20 ml HEPES-NaOH (20 mM, pH 7.4) containing 0.1 mM EDTA using the Polytron (20 s at 14'000 rpm). This procedure was repeated and the final pellet resuspended in HEPES-NaOH containing 0.1 mM EDTA and homogenized using the Polytron. Typically, aliquots of 2 ml membrane portions were stored at −80° C. With each new membrane batch the dissociation constant (Kd) was determined via a saturation curve. […] Nonspecific binding was defined as the amount of ^3[H]-(S)-4-[(ethyl-phenyl-amino)-methyl]-4,5-dihydro-oxazol-2-ylamine bound in the presence of 10 μM unlabeled ligand. All compounds were tested at a broad range of concentrations (10 pM to 10 μM) in duplicates. […] The 96 deep well plates were incubated for 1 hr at 4° C. Incubations were terminated by rapid filtration through Unifilter-96 plates (Packard Instrument Company) and glass filters GF/C (Perkin Elmer) presoaked for 1 hr in polyethylenimine (0.3%) and washed 3 times with 1 ml of cold binding buffer. After addition of 45 μl of Microscint 40 (PerkinElmer) the Unifilter-96 plate was sealed and after 1 hr the radioactivity counted using a TopCount Microplate Scintillation Counter (Packard Instrument Company).

For another experiment, the target named is mouse TAAR1 (Mus musculus (Mouse), UniProt Q923Y8). The experiment can be described thus: Radioligand binding assay on mouse TAAR1. The following applies: mouse TAAR1, membranes of stably transfected HEK-293 cells; first value of cell mouse/rat. As to the method:
as §1, §2, §3
Radioligand Binding Assay on Mouse TAAR1
as §4
HEK-293 cells stably expressing mouse TAAR1 were maintained at 37° C. and 5% CO2 in DMEM high glucose medium, containing fetal calf serum (10%, heat inactivated for 30 min at 56° C.), penicillin/streptomycin (1%), and 375 μg/ml geneticin (Gibco). Cells were released from culture flasks using trypsin/EDTA, harvested, washed twice with ice-cold PBS (without Ca^2+ and Mg^2+), pelleted at 1'000 rpm for 5 min at 4° C., frozen and stored at −80° C. Frozen pellets were suspended in 20 ml HEPES-NaOH (20 mM, pH 7.4) containing 10 mM EDTA and homogenized with a Polytron (PT 6000, Kinematica) at 14'000 rpm for 20 s. The homogenate was centrifuged at 48'000×g for 30 min at 4° C. Subsequently, the supernatant was removed and discarded, and the pellet resuspended in 20 ml HEPES-NaOH (20 mM, pH 7.4) containing 0.1 mM EDTA using the Polytron (20 s at 14'000 rpm). This procedure was repeated and the final pellet resuspended in HEPES-NaOH containing 0.1 mM EDTA and homogenized using the Polytron. Typically, aliquots of 2 ml membrane portions were stored at −80° C. With each new membrane batch the dissociation constant (Kd) was determined via a saturation curve. The TAAR1 radioligand ^3[H]-(S)-4-[(ethyl-phenyl-amino)-methyl]-4,5-dihydro-oxazol-2-ylamine (described in WO 2008/098857) was used at a concentration equal to the calculated Kd value, that was usually around 0.7 nM, resulting in the binding of approximately 0.5% of the radioligand and a specific binding representing approximately 70% of the total binding. Nonspecific binding was defined as the amount of ^3[H]-(S)-4-[(ethyl-phenyl-amino)-methyl]-4,5-dihydro-oxazol-2-ylamine bound in the presence of 10 μM unlabeled ligand. All compounds were tested at a broad range of concentrations ([…]) in duplicates. […] The 96 deep well plates were incubated for 1 hr at 4° C. Incubations were terminated by rapid filtration through Unifilter-96 plates (Packard Instrument Company) and glass filters GF/C (Perkin Elmer) presoaked for 1 hr in polyethylenimine (0.3%) and washed 3 times with 1 ml of cold binding buffer. After addition of 45 μl of Microscint 40 (PerkinElmer) the Unifilter-96 plate was sealed and after 1 hr the radioactivity counted using a TopCount Microplate Scintillation Counter (Packard Instrument Company).

The source of these data is patent US8673950B2, “Dihydrooxazol-2-amine derivatives” (Hoffmann-LaRoche Inc., priority 2010, dated 2014).

Structures are written as SMILES.

Chain of rat TAAR1 (Q923Y9 whole entry): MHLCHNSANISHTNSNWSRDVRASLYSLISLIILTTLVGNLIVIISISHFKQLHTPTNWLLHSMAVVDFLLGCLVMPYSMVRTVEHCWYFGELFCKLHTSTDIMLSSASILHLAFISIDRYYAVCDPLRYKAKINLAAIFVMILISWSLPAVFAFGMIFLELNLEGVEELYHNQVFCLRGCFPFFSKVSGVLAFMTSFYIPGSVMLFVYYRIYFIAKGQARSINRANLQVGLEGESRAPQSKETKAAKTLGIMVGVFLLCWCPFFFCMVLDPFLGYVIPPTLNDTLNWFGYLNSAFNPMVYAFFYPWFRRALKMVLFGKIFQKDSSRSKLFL
Chain of mouse TAAR1 (Q923Y8 whole entry): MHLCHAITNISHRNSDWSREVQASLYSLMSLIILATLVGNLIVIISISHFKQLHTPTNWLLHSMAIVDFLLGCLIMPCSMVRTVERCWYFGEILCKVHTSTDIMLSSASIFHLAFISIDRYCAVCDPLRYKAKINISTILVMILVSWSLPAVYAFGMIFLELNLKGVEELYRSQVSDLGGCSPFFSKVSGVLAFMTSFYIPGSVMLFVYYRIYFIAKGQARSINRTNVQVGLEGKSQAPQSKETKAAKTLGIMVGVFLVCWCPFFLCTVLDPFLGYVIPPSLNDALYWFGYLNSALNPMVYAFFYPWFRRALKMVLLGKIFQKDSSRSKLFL

Turning to `N#Cc1cnc(Nc2ccc(CC[C@H]3COC(N)=N3)cc2)cn1` [Example 39, 5-{4-[2-((8)-2-Amino-4,5-dihydro-oxazol-4-yl)-ethyl]-phenylamino}-pyrazine-2-carbonitrile], the Ki at rat TAAR1 was found to be 0.0043 µM; on mouse TAAR1, 0.0128 µM.
Regarding `NC1=N[C@@H](CCc2ccc(Nc3ncc(Cl)cn3)nc2)CO1` [Example 71, {5-[2-((S)-2-Amino-4,5-dihydro-oxazol-4-yl)-ethyl]-pyridin-2-yl}-(5-chloro-pyrimidin-2-yl)-amine], the values for the Ki at rat TAAR1 and on mouse TAAR1 were 0.0011 µM and 0.0137 µM, respectively.
For `NC1=N[C@@H](CCc2ccc(NC(c3ccc(Cl)cc3)C(F)(F)F)cc2)CO1` (stereo partly drawn) [Example 63, (4S)-4-(4-(1-(4-Chlorophenyl)-2,2,2-trifluoroethylamino)phenethyl)-4,5-dihydrooxazol-2-amine], the inhibitory constant (Ki) on rat TAAR1 was 0.0022 µM; on mouse TAAR1, 0.0084 µM.
Regarding `Cc1cccc(Nc2ccc(CC[C@H]3COC(N)=N3)cc2)n1` [Example 25, {4-[2-((S)-2-Amino-4,5-dihydro-oxazol-4-yl)-ethyl]-phenyl}-(6-methyl-pyridin-2-yl)-amine], the Ki at rat TAAR1 worked out at 0.0007 µM; on mouse TAAR1 it was 0.0035 µM.
For `NC1=N[C@@H](CCc2ccc(Nc3ncc(OCC(F)(F)F)cn3)cc2)CO1` [Example 73, (S)-4-(4-(5-(2,2,2-Trifluoroethoxy)pyrimidin-2-ylamino)phenethyl)-4,5-dihydrooxazol-2-amine] the same measures were 0.0028 µM and 0.02 µM.
The matching figures for `Cc1cc(Nc2ccc(CC[C@H]3COC(N)=N3)cc2)ccc1OC(F)(F)F` [Example 10, (S)-4-(4-(3-Methyl-4-(trifluoromethoxy)phenylamino)phenethyl)-4,5-dihydrooxazol-2-amine]: 0.0001 µM and 0.0001 µM.
With `COc1ccc(Nc2ccc(CC[C@H]3COC(N)=N3)cc2)cc1` [Example 9, (S)-4-{2-[4-(4-Methoxy-phenylamino)-phenyl]-ethyl}-4,5-dihydro-oxazol-2-ylamine], the inhibitory constant (Ki) on rat TAAR1 was determined as 0.0002 µM; at mouse TAAR1, 0.0032 µM.
As for `COc1cccc(C(Nc2ccc(CC[C@H]3COC(N)=N3)cc2)C(F)(F)F)n1` (stereo partly drawn) [Example 70, (4S)-4-(4-(2,2,2-Trifluoro-1-(6-methoxypyridin-2-yl)ethylamino)phenethyl)-4,5-dihydrooxazol-2-amine], the figures for the Ki at rat TAAR1 and at mouse TAAR1 were 0.0205 µM and 0.134 µM, respectively.
For `NC1=N[C@@H](CCc2ccc(N[C@H](c3ccc(Cl)cc3)C(F)(F)F)cc2)CO1` [Example 65, (−)-(S)-4-(4-((R)-1-(4-chlorophenyl)-2,2,2-trifluoroethylamino)phenethyl)-4,5-dihydrooxazol-2-amine], the values for the inhibition constant Ki on rat TAAR1 and on mouse TAAR1 were 0.0032 µM and 0.0244 µM, respectively.
For the molecule `NC1=N[C@@H](CCc2ccc(Nc3cccc4cccc(Cl)c34)cc2)CO1` [Example 5, (S)-4-(4-(8-Chloronaphthalen-1-ylamino)phenethyl)-4,5-dihydrooxazol-2-amine], the Ki amounted to 0.0033 µM at rat TAAR1 and 0.0262 µM on mouse TAAR1.
As for `NC1=N[C@@H](CCc2ccc(Nc3ncccc3F)cc2)CO1` [Example 21, {4-[2-((S)-2-Amino-4,5-dihydro-oxazol-4-yl)-ethyl]-phenyl}-(3-fluoro-pyridin-2-yl)-amine], the Ki on rat TAAR1 came out at 0.0005 µM; on mouse TAAR1, 0.02 µM.
Regarding `N#Cc1cnc(Nc2ccc(CC[C@H]3COC(N)=N3)cc2)nc1` [Example 59, 2-{4-[2-((S)-2-Amino-4,5-dihydro-oxazol-4-yl)-ethyl]-phenylamino}-pyrimidine-5-carbonitrile], the inhibition constant Ki at rat TAAR1 stood at 0.0008 µM; at mouse TAAR1, 0.008 µM.
The matching figures for `COc1ccnc(Nc2ccc(CC[C@H]3COC(N)=N3)cc2)n1` [Example 36, {4-[2-((S)-2-Amino-4,5-dihydro-oxazol-4-yl)-ethyl]-phenyl}-(4-methoxy-pyrimidin-2-yl)-amine]: 0.0004 µM and 0.0047 µM.
On to `COc1ccc(Nc2ccc(CC[C@H]3COC(N)=N3)cc2)nc1` [Example 30, {4-[2-((S)-2-Amino-4,5-dihydro-oxazol-4-yl)-ethyl]-phenyl}-(5-methoxy-pyridin-2-yl)-amine], for which the inhibitory constant (Ki) on rat TAAR1 was 0.0083 µM; at mouse TAAR1, 0.134 µM.
Turning to `NC1=N[C@@H](CCc2ccc(Nc3cc(C(F)(F)F)ncn3)cc2)CO1` [Example 17, (S)-4-(4-(6-(Trifluoromethyl)pyrimidin-4-ylamino)phenethyl)-4,5-dihydrooxazol-2-amine], the Ki on rat TAAR1 was determined as 0.0012 µM; at mouse TAAR1 it was 0.0013 µM.
As to `NC1=N[C@@H](CCc2ccc(Nc3ncc(C4CCC4)cn3)cc2)CO1` [Example 60, (S)-4-(4-(5-Cyclobutylpyrimidin-2-ylamino)phenethyl)-4,5-dihydrooxazol-2-amine], the results for the Ki at rat TAAR1 and at mouse TAAR1 were 0.0002 µM and 0.0003 µM, respectively.
Turning to `CSc1ccnc(Nc2ccc(CC[C@H]3COC(N)=N3)cc2)n1` [Example 45, {4-[2-((S)-2-Amino-4,5-dihydro-oxazol-4-yl)-ethyl]-phenyl}-(4-methylsulfanyl-pyrimidin-2-yl)-amine], the Ki on rat TAAR1 was 0.0013 µM; on mouse TAAR1 it was 0.0077 µM.
For `CCC(CC)c1cnc(Nc2ccc(CC[C@H]3COC(N)=N3)cc2)nc1` [Example 58, (S)-4-(4-(5-(Pentan-3-yl)pyrimidin-2-ylamino)phenethyl)-4,5-dihydrooxazol-2-amine], the inhibition constant (Ki) was 0.0001 µM on rat TAAR1 and 0.0002 µM at mouse TAAR1.
For `N#Cc1ccc(Nc2ccc(CC[C@H]3COC(N)=N3)cc2)nc1` [Example 16, 6-{4-[2-((S)-2-Amino-4,5-dihydro-oxazol-4-yl)-ethyl]-phenylamino}-nicotinonitrile] the same measures were 0.0004 µM and 0.0015 µM.
The matching figures for `NC1=N[C@@H](CCc2ccc(Nc3nccc(C(F)(F)F)n3)cc2)CO1` [Example 40, {4-[2-((S)-2-Amino-4,5-dihydro-oxazol-4-yl)-ethyl]-phenyl}-(4-trifluoromethyl-pyrimidin-2-yl)-amine]: 0.001 µM and 0.0024 µM.
